Source: ChEMBL document CHEMBL3507680, “University of Dundee, Gates Library screen for HepG2 cell viability”

Assay: Human HepG2 cell viability assay in 384 well format
Type: toxicity, cell-based
Set-up: dose 125 nL, time 70.5 hour; cytotoxicity at 70.5 h: concentration not given beside the values
Details: HepG2 cells, read-out: Inhibition

Compound	cytotoxicity at 70.5 h
CCC1=NN2C(=N)/C(=C\c3cccn3-c3ccc(Br)cc3)C(=O)N=C2S1	3.19%
CC(=O)N1CC[C@H]2CC(=O)N(Cc3ccc4c(c3)OCO4)CC[C@H]2C1	-3.96%
CCNC(=O)N1CC[C@H]2CC(=O)N(CCN3CCNC3=O)CC[C@H]2C1	-3.51%
CC(C)(C)CC(=O)N1CC[C@H]2CC(=O)N(CCc3c[nH]cn3)CC[C@H]2C1	-4.11%
COc1ccc(-c2noc([C@@H]3C[C@@H](O)CN3C3CCN(C)CC3)n2)cc1	-2.03%
COCC(=O)N[C@H]1C[C@H]2C(=O)NC[C@@H](CCC(=O)NC3CC3)N2C1	-2.9%
CN1C[C@H](O)C[C@H]1c1nc(-c2ccc3c(c2)OCO3)no1	-0.612%
CC(C)(C)c1cc(C[C@H]2CNCC[C@H]2CC(=O)N2CCCCC2)no1	-1.6%
CCN(CC)C(=O)CC[C@@H]1CNC(=O)[C@@H]2C[C@H](NC(=O)C3CC3)CN12	-2.96%
CCN(CC)CC[C@H]1CN(C(=O)CC(C)(C)C)CC[C@H]1CC(=O)O	-4.24%
CN1C[C@@H](NC(=O)CC(C)(C)C)C[C@H]1c1nc(-c2cnccn2)no1	-0.594%
O=C1N[C@@H]2CCN(C(=O)c3ccccc3)[C@@H]2C(=O)N1Cc1ccccc1	-5.37%
COCC(=O)N1CCN(C(=O)c2cccs2)[C@@H](C(=O)OC)C1	-5%
CC(=O)N1CC[C@H](c2nc3cc(C)ccc3o2)C1	0.212%
COC(=O)[C@@H]1Cc2ncn(C)c2CN1S(=O)(=O)c1cccs1	-1.34%
CN1C[C@@H](F)[C@@H](OCc2nc3ccccc3n2C)C1	-2.45%
FC(F)(F)c1ccc2[nH]c([C@H]3CCNC3)nc2c1	-2.06%
c1ccc(-c2noc([C@@H]3Cc4nc[nH]c4CN3)n2)cc1	-14%
CS(=O)(=O)c1ccc(-c2c[nH]c([C@@H]3COCCN3)n2)cc1	-8.19%
O=C([C@@H]1Cc2[nH]cnc2CN1CC1CC1)N1CCCC1	9.33%
COCC(=O)Nc1ccc(-c2noc([C@@H]3CCCN3C)n2)cn1	-7.79%
CS(=O)(=O)c1ccc(CN2C[C@@H]3OCC(=O)N(CC(N)=O)[C@@H]3C2)cc1	-4.08%

Compound	cytotoxicity at 70.5 h
CC(=O)NC[C@H]1OC[C@@H](NC2CCC(F)(F)CC2)[C@@H]1O	-4.95%
O=S(=O)(NC[C@H]1OC[C@@H](NCc2cccs2)[C@@H]1O)c1ccccc1	-10.7%
CC(C)NC(=O)N[C@H]1C[C@@H](c2nc(-c3ccncc3)no2)N(C)C1	-5.9%
CC(C)(C)CC(=O)NC[C@H]1OC[C@@H](NC2CCC(F)(F)CC2)[C@@H]1O	-5.07%
Cc1ccc(S(=O)(=O)NC[C@H]2OC[C@@H](NCc3ccncc3)[C@@H]2O)cc1	-8.05%
COc1ccc(-c2cn3c(n2)CO[C@@H](CNCc2nccn2C)C3)cc1	6.44%
F[C@@H]1CN(Cc2nccs2)C[C@@H]1OCc1nc2cnccc2[nH]1	-3.2%
Cc1cccc(CNC[C@H]2COCc3nc4cccnc4n32)n1	-9.5%
COc1ccc2c(c1)nc1n2[C@@H](CNCc2cnn(C)c2)COC1	-8.24%
CN(C)CCN(C)C[C@H]1CN2CC[C@H]1C[C@@H]2CNC(=O)Nc1ccsc1	-2.68%
Cc1ccc(CNC2(Cc3cc(-c4ccccn4)on3)COC2)o1	-1.75%
O=C(c1ccno1)N1C[C@@H](F)[C@@H](OCc2nc3ccccc3o2)C1	0.816%
Cc1cccc(-c2noc([C@@H]3C[C@@H](O)CN3C3CCOCC3)n2)c1	-3.79%
CN1C(=O)CO[C@H](c2ccc(NC(=O)c3cccnc3)cc2)[C@H]1CO	-2.53%
CO[C@H]1COCCN(Cc2c[nH]c3ccccc23)C1	-4%
O=C(C1CC1)N1CC[C@H](c2nnc(-c3ccccc3F)o2)C1	-7.55%
O=C(NCCC1=CCCCC1)c1[nH]nc2c1CCCC2	11.2%
CN(C)CCCNCC1CCOC(C)(C)C1 (stereo unspecified)	-3.4%
CCCNC(=O)COc1cccc(-c2nc(C(C)C)no2)c1	0.882%
CC(C)c1noc(-c2cccc(OCC(N)=O)c2)n1	-5.07%
COCCCNc1c(-c2ccccc2)c(=O)c1=O	-8.63%
CCCN(CCC)CCNc1c(-c2ccccc2)c(=O)c1=O	1.06%

Compound	cytotoxicity at 70.5 h
COCCNc1c(-c2ccc(Cl)cc2)c(=O)c1=O	-7.26%
Cc1nnc(NC(=O)CSCc2cc(=O)n3ccccc3n2)s1	-4.73%
Cc1ccn2c(=O)cc(CSCC(=O)Nc3nnc(C(C)C)s3)nc2c1	23%
CCC(C)NC(=O)CCn1ccc(C)n1 (stereo unspecified)	-6.22%
Cc1ccn(CCC(=O)NCCc2ccco2)n1	-3.53%
Cc1nc(N2CCN(C)CC2)ncc1C(=O)N1CCCCCC1	-1.12%
CCN(CC)S(=O)(=O)c1ccc2c(c1)N(Cc1ccccn1)C(=O)CS2	-4.62%
CCN(CC)S(=O)(=O)c1ccc2c(c1)N(Cc1cccnc1)C(=O)CS2	-4.53%
CCOC(=O)Cc1csc(NC(=O)c2ccc(=O)[nH]n2)n1	-5.3%
Cc1ccc(NC(=O)c2ccc(=O)n(CC(=O)Nc3nccs3)n2)cc1	23.1%
CCOCc1nc(N2CCOCC2)sc1C(=O)NCc1ccco1	-6.85%
CCOCCCNC(=O)C1(C)CCC(=O)N1Cc1ccccc1F (stereo unspecified)	0.95%
O=C1N(Cc2ccncc2)CCC12CCCNC2 (stereo unspecified)	-4.76%
CC(C)NC(=O)N1CC[C@@H]2[C@@H]1CC(=O)N2Cc1cccnc1	-13.6%
O=C(C1CCOC1)N1CCC2(CCNCC2)C1 (stereo unspecified)	27.5%
Fc1cccc(CN2CCC(c3n[nH]c4ncccc34)CC2)c1F	-9.75%
O=C(NC(Cc1ccsc1)c1nccs1)C1CCOCC1 (stereo unspecified)	-14.6%
Cc1ccc2cc(CNCCCN3CCOCC3)c(=O)[nH]c2c1	-13%
COCc1cc(O)nc(C2CCCN(Cc3cc(OC)ccc3F)C2)n1 (stereo unspecified)	-4.84%
CN(C)c1ncc(CN2CCC(c3nnsc3S(C)(=O)=O)CC2)cn1	-19.4%
Cc1ccsc1-c1nnc(C2CCN(Cc3ccc(F)cc3)CC2)o1	-21.5%
CN(C)Cc1ccnc(C2CCCN2Cc2cc[nH]n2)n1 (stereo unspecified)	-1.65%

Compound	cytotoxicity at 70.5 h
Cc1ccccc1-c1cncc(C2CCN(C)CC2)n1	-14.3%
CO[C@H]1CN(C(=O)c2ccc3oc(C)cc3c2)CC[C@@]12CCCO2	-13.4%
O=C(COc1cccc(F)c1)N1C[C@@H](O)[C@H](N2CCCC2)C1	-10.1%
COc1cccc(OC)c1C(=O)N1CCN(c2ccccc2F)CC1	39%
CCc1cc(O)nc(C2CCCN2C(=O)c2cc(C)no2)n1 (stereo unspecified)	8.47%
CCc1cc(C(=O)N2CCCC2c2nc(C)c(F)c(O)n2)on1 (stereo unspecified)	4.3%
Nc1nc2nc(C3CCCN(C(=O)c4cscn4)C3)ccc2s1 (stereo unspecified)	9.1%
CNc1cccc(C2CCCN(C(C)=O)C2)n1 (stereo unspecified)	-19.3%
CCC(=O)N1CCCC1c1nccnc1Nc1nc(C)cc(C)n1 (stereo unspecified)	-14%
CN(Cc1ccc(F)cc1)[C@@H]1CN(C(=O)c2cccs2)C[C@H]1O	-17.9%
CN(c1ccncn1)C1CC2(CCN(C(=O)c3ccsc3)C2)C1 (stereo unspecified)	-28.9%
NCc1cn(-c2ccccc2C(=O)NCc2cccc(Cl)c2)cn1	-13.7%
Cc1cccc(C(=O)N2CCC(Cc3cnc4[nH]ccc4c3)CC2)n1	-7.84%
Cc1cncc(C2CCCN(C(=O)c3c[nH]c(=O)[nH]c3=O)C2)n1 (stereo unspecified)	-22.8%
COc1cccc(S(=O)(=O)N2CCC(O)(CN(C)C)C2)c1 (stereo unspecified)	-19.7%
Cc1nc(O)c2nnn(C[C@H]3CCCN3C(=O)C(C)(C)C)c2n1	-13.1%
COc1ccc(CN2CCC3(CC(Nc4ccncn4)C3)C2)c(OC)c1 (stereo unspecified)	-6.97%
O=C1CN(Cc2ccc(-c3ccccc3C(=O)O)cc2)CCN1	37.1%
CNc1ccc(CC2CCCN(C(=O)c3cnc(C)nc3)C2)nn1 (stereo unspecified)	-6.58%
CC(=O)N1CCC(c2cc(C(F)(F)F)n3ccnc3n2)CC1	5.43%
Cc1cc(-c2ccc(C(=O)O)cc2)nc(C2CCCN(C(C)C)C2)n1 (stereo unspecified)	-9.15%
COc1cccc(-c2noc(C3CCN(Cc4cccs4)C3)n2)c1 (stereo unspecified)	8.44%

Compound	cytotoxicity at 70.5 h
CC(C)(C)C(=O)N1C[C@H](c2ccsc2)[C@H]2CN(Cc3cccs3)CC[C@H]21	0.661%
CNC(=O)[C@@H](c1ccccc1)N1CCC[C@H]1C(=O)NCc1cccnc1	-2.18%
CC(=O)N1[C@H](CN(C)C)C[C@@H]2CN(C(=O)c3occc3C)CC[C@@H]21	-3.81%
O=C(NC1CC1)C1=CC2(CCN(CC3CC3)CC2)c2ccccc21	-4.67%
CCO[C@H]1CO[C@@]2(CCN(Cc3ccc4c(c3)OCO4)C2)C1	-9.21%
CC(=O)N1CCC2(CC1)C(=O)N(CC1CCN(C)CC1)c1ccccc12	-8.7%
CC(=O)N1[C@H](CN(C)C)C[C@@H]2CN(C(=O)c3ccno3)CC[C@@H]21	-9.81%
CNC(=O)CN1CCCC12CCN(C(=O)c1ccoc1)CC2	-11.1%
O=C1C[C@H]2[C@@H](CCN2C(=O)Cc2cccs2)N1Cc1ccncc1	27.8%
CCN1CCOCC2(CCCN(C(=O)c3ccccc3F)C2)C1 (stereo unspecified)	8.58%
CCCC(=O)N1C[C@@H]2CCN(c3cnccn3)C[C@@H]2C1	8.32%
O=C1N(CC2CC2)CCC12CCN(Cc1ccoc1)CC2	-8.87%
Cc1oncc1C(=O)N1CCC2(CC1)CC(N1CCOCC1)C2	-11.3%
CN1[C@@H](C(=O)NCC2CC2)C[C@@H]2CN(Cc3ccsc3)C[C@@H]21	11.3%
COc1ccc(CN2CC[C@H]3[C@H]2CC(=O)N3Cc2cccc(C)n2)cc1	-7.27%
Cc1nc(CN2C[C@H]3C[C@H](C(=O)NCC4CC4)N(C)[C@H]3C2)cs1	9.54%
Cc1ccc(CN(Cc2ccccn2)C2CC(C)(C)NC(C)(C)C2)s1	-7.96%
COc1cc(O)cc2c1C(=O)CC(c1ccc(O)cc1)O2 (stereo unspecified)	-14%
